Like-named read-outs stand apart in the source and are kept apart here.

The test system of one data set is human skin fibroblasts. As to the kind of experiment: Proliferation of human skin fibroblasts (cell counting). It counts as cell-based. The following applies: Homo sapiens, Skin fibroblast, read-out: Proliferation (IC50). The procedure:
Human fibroblasts were grown in […] in Dulbecco's modified Eagles medium supplemented with streptomycin/penicillin (100 units of each/ml), kanamycin (100 units/ml) and 10% foetal calf serum. Cell proliferation was determined by cell counting after trypsinisation three days after seeding.

For another data set, the system named is human fibroblasts. Briefly: Hyaluronan production of human fibroblasts (ELISA of culture medium). The following applies: Fibroblast; human fibroblasts, culture medium; read-out: HA production (IC50). It counts as cell-based. (ELISA stands for enzyme-linked immunosorbent assay.)
A further data set concerns the target MRP5 (Homo sapiens, UniProt O15440). The following applies: cited from earlier work.
Data set [1] addresses MRP transporters (Homo sapiens, UniProt P33527). The following applies: read-out: IC50 for MRP transporter; cited from earlier work.
The subject of data set [2] is T1, MRP transporters.
T1 construct: other: human erythrocytes
The following applies: human erythrocytes; cited from earlier work.

Another data set has as its target T2, MRP4 (Homo sapiens, UniProt O15439).
T2 sequence (O15439 1-1325): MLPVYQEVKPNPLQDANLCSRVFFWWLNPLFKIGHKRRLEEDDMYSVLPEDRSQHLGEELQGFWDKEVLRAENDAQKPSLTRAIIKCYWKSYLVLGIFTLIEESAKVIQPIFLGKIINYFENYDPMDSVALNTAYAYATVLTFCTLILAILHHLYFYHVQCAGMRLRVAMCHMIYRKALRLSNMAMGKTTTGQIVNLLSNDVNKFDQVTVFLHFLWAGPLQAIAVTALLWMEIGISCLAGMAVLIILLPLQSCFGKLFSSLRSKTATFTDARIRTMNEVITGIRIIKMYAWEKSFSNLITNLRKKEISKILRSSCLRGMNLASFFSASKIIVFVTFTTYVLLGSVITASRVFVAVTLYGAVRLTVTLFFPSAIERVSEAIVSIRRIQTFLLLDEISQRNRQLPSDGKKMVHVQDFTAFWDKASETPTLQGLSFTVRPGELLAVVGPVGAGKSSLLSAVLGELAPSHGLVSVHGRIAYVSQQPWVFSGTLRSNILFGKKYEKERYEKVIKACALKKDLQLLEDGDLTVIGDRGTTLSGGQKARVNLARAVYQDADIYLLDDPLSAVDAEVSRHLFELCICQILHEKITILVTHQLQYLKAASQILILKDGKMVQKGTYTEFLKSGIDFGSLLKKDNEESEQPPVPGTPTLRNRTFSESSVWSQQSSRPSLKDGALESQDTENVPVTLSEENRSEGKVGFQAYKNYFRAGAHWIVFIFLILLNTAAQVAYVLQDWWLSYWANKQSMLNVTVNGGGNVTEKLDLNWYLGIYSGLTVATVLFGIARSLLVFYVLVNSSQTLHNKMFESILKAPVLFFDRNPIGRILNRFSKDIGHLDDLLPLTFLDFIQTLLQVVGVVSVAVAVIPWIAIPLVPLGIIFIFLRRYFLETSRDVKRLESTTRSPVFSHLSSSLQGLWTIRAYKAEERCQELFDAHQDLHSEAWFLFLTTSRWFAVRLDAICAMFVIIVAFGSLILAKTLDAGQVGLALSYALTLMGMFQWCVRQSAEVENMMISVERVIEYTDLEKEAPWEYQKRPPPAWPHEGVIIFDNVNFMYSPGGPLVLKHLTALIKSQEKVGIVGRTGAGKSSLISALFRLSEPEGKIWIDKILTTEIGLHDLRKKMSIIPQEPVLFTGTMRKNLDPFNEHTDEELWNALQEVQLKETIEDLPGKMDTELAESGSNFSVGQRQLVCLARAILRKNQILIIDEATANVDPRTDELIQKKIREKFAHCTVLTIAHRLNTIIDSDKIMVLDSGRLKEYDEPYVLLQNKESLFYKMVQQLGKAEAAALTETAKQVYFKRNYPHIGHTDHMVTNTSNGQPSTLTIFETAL
The following applies: cited from earlier work.

Chain of MRP5 (O15440 whole entry): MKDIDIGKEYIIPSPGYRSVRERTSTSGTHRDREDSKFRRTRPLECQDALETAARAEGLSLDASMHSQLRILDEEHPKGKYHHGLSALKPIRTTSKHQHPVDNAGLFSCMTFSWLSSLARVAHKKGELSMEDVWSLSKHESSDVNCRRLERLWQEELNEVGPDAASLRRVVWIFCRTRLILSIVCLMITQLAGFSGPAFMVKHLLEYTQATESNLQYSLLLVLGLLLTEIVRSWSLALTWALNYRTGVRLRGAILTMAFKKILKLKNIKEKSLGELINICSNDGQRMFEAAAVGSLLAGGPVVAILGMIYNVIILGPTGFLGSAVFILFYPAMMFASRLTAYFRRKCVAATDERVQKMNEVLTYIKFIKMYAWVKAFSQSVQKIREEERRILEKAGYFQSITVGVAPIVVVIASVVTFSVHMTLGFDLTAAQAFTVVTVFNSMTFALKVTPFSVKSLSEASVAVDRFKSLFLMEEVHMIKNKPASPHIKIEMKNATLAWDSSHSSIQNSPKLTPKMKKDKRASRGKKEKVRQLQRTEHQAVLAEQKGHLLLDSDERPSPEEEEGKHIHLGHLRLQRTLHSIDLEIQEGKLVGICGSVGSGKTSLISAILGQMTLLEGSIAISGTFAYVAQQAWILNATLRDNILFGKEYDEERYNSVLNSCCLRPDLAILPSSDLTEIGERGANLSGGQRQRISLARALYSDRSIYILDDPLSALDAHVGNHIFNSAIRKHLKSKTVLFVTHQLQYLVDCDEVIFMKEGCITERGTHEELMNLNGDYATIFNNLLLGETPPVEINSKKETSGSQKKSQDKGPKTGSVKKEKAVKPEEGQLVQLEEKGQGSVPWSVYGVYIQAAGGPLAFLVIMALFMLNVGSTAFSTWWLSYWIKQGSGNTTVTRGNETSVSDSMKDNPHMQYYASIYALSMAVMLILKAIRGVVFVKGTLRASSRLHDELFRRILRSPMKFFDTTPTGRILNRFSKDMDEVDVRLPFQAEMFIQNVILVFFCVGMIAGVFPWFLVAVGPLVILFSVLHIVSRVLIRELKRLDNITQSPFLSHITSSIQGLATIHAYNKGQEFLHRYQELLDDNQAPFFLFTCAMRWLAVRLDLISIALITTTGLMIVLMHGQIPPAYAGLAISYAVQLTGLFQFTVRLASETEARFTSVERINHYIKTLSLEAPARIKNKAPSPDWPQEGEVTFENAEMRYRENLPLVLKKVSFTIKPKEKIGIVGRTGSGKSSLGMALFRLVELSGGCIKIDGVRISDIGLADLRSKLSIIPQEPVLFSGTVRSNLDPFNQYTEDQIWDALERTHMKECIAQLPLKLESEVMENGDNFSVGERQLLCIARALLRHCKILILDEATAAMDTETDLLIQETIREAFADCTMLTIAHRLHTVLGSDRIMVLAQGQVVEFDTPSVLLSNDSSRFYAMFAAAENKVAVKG
Chain of MRP transporters (Homo sapiens, UniProt P33527) (P33527 whole entry): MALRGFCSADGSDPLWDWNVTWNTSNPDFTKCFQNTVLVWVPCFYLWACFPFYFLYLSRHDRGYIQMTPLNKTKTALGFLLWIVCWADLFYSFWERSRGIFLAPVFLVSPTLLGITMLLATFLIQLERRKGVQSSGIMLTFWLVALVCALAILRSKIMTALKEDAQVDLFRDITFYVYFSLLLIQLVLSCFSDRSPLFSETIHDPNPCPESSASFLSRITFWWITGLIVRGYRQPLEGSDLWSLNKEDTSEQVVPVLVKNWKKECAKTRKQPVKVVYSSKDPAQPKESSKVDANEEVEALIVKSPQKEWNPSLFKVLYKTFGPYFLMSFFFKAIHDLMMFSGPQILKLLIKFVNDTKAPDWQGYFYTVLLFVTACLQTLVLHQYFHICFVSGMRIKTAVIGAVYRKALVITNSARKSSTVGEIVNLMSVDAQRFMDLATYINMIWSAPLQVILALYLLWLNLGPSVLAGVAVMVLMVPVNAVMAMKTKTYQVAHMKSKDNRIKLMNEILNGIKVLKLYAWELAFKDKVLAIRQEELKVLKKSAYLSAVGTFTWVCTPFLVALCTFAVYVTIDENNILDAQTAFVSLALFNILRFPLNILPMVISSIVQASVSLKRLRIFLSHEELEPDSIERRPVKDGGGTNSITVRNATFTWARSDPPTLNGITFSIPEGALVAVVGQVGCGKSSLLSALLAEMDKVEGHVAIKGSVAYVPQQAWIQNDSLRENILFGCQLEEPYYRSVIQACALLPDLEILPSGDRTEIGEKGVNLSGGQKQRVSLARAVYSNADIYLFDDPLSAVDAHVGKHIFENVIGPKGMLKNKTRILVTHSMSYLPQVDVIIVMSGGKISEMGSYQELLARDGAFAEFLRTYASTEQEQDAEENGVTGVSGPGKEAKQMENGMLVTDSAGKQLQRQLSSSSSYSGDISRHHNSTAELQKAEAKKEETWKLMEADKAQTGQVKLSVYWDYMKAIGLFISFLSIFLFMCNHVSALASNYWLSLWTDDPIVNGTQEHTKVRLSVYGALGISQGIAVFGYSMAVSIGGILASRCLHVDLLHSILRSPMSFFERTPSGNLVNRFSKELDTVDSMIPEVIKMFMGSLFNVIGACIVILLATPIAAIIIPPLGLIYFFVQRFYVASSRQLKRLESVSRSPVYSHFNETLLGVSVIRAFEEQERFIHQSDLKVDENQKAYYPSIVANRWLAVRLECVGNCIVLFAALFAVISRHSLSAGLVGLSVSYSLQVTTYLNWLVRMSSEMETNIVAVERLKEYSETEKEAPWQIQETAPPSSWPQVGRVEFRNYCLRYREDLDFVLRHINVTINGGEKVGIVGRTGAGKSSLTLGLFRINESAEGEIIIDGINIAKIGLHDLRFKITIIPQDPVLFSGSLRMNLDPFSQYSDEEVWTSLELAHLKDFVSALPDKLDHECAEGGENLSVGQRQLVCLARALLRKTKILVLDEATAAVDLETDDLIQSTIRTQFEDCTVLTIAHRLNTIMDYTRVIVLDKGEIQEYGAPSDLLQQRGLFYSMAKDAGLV

Regarding `CCCN(CCC)S(=O)(=O)c1ccc(C(=O)O)cc1` [Probenecid], the IC50 is 200 µM in the data set on human skin fibroblasts; 200 µM with human fibroblasts; 200 µM at MRP5 (substrate PMEA, read-out: IC50, PMEA transport by MRP5); 500 to 800 µM on MRP transporters [1]; 100 to 200 µM with MRP transporters [2]; 2300 µM on MRP4 (read-out: IC50, 9-(2-phosphonomethoxyethyl)adenine (PMEA) transport by MRP4, substrate PMEA). Also, the IC50 on MRP4 (read-out: IC50, MRP4 mediated export of methotrexate, substrate methotrexate) was around 300 µM; at MRP4 (read-out: published inhibitory concentrations IC50 or Ki, MRP4), 300 µM. Further, at MRP5 (at a concentration of 50 μM), the “inhibition of MRP5 mediated transport of cGMP” value was 68%. At MRP5 (substrate fluorescein diacetate), the “concentration inhibiting export of fluorescein diacetate by MRP5” value was 1 mM.

The values above are taken from US20080152640A1, “Means and Methods For Treating a Disease Which is Associated With an Excess Transport of Hyaluronan Across a Lipid Bilayer” (priority 2003, published 2008).
